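96-well plates; 48 h exposure; 5 concentrations. Endpoints by linear interpolation between flanking doses. Not reached: highest tested concentration assigned. Definition used: TGI = concentration required for complete inhibition of growth.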
What was measured:
Test in all cases: NCI-60 cell line screen, 48 h
XF 498 CNS = test system: XF 498 CNS
UACC-257 melanoma = test system: UACC-257 melanoma
HL-60(TB) leukemia = test system: HL-60(TB) leukemia
ACHN renal = test system: ACHN renal
A549 NSCLC = test system: A549 NSCLC
TK-10 renal = test system: TK-10 renal
RPMI-8226 leukemia = test system: RPMI-8226 leukemia
EKVX NSCLC = test system: EKVX NSCLC
OVCAR-8 ovarian = test system: OVCAR-8 ovarian
M19-MEL melanoma = test system: M19-MEL melanoma
DMS 273 small cell lung = test system: DMS 273 small cell lung
LOX IMVI melanoma = test system: LOX IMVI melanoma
MALME-3M melanoma = test system: MALME-3M melanoma
OVCAR-4 ovarian = test system: OVCAR-4 ovarian
SF-295 CNS = test system: SF-295 CNS
HOP-92 NSCLC = test system: HOP-92 NSCLC
CAKI-1 renal = test system: CAKI-1 renal
KM12 colon = test system: KM12 colon
U251 CNS = test system: U251 CNS
SNB-75 CNS = test system: SNB-75 CNS
OVCAR-5 ovarian = test system: OVCAR-5 ovarian
NCI-H522 lung = test system: NCI-H522 lung
SNB-19 CNS = test system: SNB-19 CNS
DMS 114 small cell lung = test system: DMS 114 small cell lung
MCF7 breast = test system: MCF7 breast
M14 melanoma = test system: M14 melanoma
COLO 205 colon = test system: COLO 205 colon
SK-OV-3 ovarian = test system: SK-OV-3 ovarian
SNB-78 CNS = test system: SNB-78 CNS
KM20L2 colon = test system: KM20L2 colon
HCC-2998 colon = test system: HCC-2998 colon
A498 renal = test system: A498 renal
K-562 leukemia = test system: K-562 leukemia
HT29 colon = test system: HT29 colon
SN12C renal = test system: SN12C renal
UO-31 renal = test system: UO-31 renal
HCT-15 colon = test system: HCT-15 colon
NCI-H23 lung = test system: NCI-H23 lung
UACC-62 melanoma = test system: UACC-62 melanoma
RXF 393 renal = test system: RXF 393 renal
MOLT-4 leukemia = test system: MOLT-4 leukemia
HCT-116 colon = test system: HCT-116 colon
SK-MEL-2 melanoma = test system: SK-MEL-2 melanoma
DLD-1 colon = test system: DLD-1 colon
IGROV1 ovarian = test system: IGROV1 ovarian
HOP-18 NSCLC = test system: HOP-18 NSCLC
LXFL 529 NSCLC = test system: LXFL 529 NSCLC
NCI-H226 lung = test system: NCI-H226 lung
SK-MEL-28 melanoma = test system: SK-MEL-28 melanoma
CCRF-CEM leukemia = test system: CCRF-CEM leukemia
SN12K1 renal = test system: SN12K1 renal
HOP-62 NSCLC = test system: HOP-62 NSCLC
SF-268 CNS = test system: SF-268 CNS
SW-620 colon = test system: SW-620 colon
NCI-H460 lung = test system: NCI-H460 lung
OVCAR-3 ovarian = test system: OVCAR-3 ovarian
SK-MEL-5 melanoma = test system: SK-MEL-5 melanoma
RXF-631 renal = test system: RXF-631 renal
NCI/ADR-RES ovarian = test system: NCI/ADR-RES ovarian
SF-539 CNS = test system: SF-539 CNS
786-0 renal = test system: 786-0 renal
PC-3 prostate = test system: PC-3 prostate
SR leukemia = test system: SR leukemia
HS 578T breast = test system: HS 578T breast
MDA-MB-435 = test system: MDA-MB-435
BT-549 breast = test system: BT-549 breast
DU-145 prostate = test system: DU-145 prostate
T-47D breast = test system: T-47D breast
MDA-N = test system: MDA-N
MDA-MB-231 breast = test system: MDA-MB-231 breast

`CN(C)CC1CC/C(=C\c2ccc(Cl)cc2)C1=O` (stereo not given) showed a TGI (XF 498 CNS) of 19.8 µM, a TGI (UACC-257 melanoma) of 21.3 µM and a TGI (HL-60(TB) leukemia) of 2.88 µM. For the same compound, the TGI (ACHN renal) was 25.7 µM, the TGI (A549 NSCLC) was 42.1 µM and the TGI (TK-10 renal) was 21.7 µM. For the same compound, the TGI (RPMI-8226 leukemia) was 2410 nM, the TGI (EKVX NSCLC) was 30.1 µM and the TGI (OVCAR-8 ovarian) was 12.8 µM. For the same compound, the TGI (M19-MEL melanoma) was 10.7 µM, the TGI (DMS 273 small cell lung) was 12.9 µM and the TGI (LOX IMVI melanoma) was 6.87 µM. The TGI (MALME-3M melanoma) was 15 µM, the TGI (OVCAR-4 ovarian) was 29.1 µM and the TGI (SF-295 CNS) was 35.5 µM. For the same compound, the TGI (HOP-92 NSCLC) was 22.5 µM, the TGI (CAKI-1 renal) was 12.9 µM and the TGI (KM12 colon) was 13.7 µM. The TGI (U251 CNS) was 14 µM, the TGI (SNB-75 CNS) was 28.7 µM and the TGI (OVCAR-5 ovarian) was 34.3 µM. For the same compound, the TGI (NCI-H522 lung) was 6.94 µM, the TGI (SNB-19 CNS) was 30.1 µM and the TGI (DMS 114 small cell lung) was 20.7 µM. The TGI (MCF7 breast) was 7.47 µM, the TGI (M14 melanoma) was 22.5 µM and the TGI (COLO 205 colon) was 12 µM. It also gave a TGI (SK-OV-3 ovarian) of 24.5 µM, a TGI (SNB-78 CNS) of 40.4 µM and a TGI (KM20L2 colon) of 29.7 µM. The TGI (HCC-2998 colon) was 18.8 µM, the TGI (A498 renal) was 24 µM and the TGI (K-562 leukemia) was 4.46 µM. It also gave a TGI (HT29 colon) of 23.7 µM, a TGI (SN12C renal) of 20.5 µM and a TGI (UO-31 renal) of 30.5 µM. The TGI (HCT-15 colon) was 9.75 µM, the TGI (NCI-H23 lung) was 21.8 µM and the TGI (UACC-62 melanoma) was 21.7 µM. It also gave a TGI (RXF 393 renal) of 8.66 µM, a TGI (MOLT-4 leukemia) of 2.75 µM and a TGI (HCT-116 colon) of 9.41 µM. The TGI (SK-MEL-2 melanoma) was 26.6 µM, the TGI (DLD-1 colon) was 12.5 µM and the TGI (IGROV1 ovarian) was 31.1 µM. For the same compound, the TGI (HOP-18 NSCLC) was 34 µM, the TGI (LXFL 529 NSCLC) was 4.13 µM and the TGI (NCI-H226 lung) was 35.8 µM. For the same compound, the TGI (SK-MEL-28 melanoma) was 10.4 µM, the TGI (CCRF-CEM leukemia) was 2.89 µM and the TGI (SN12K1 renal) was 5.15 µM. The TGI (HOP-62 NSCLC) was 41.5 µM, the TGI (SF-268 CNS) was 19.9 µM and the TGI (SW-620 colon) was 7.44 µM. The TGI (NCI-H460 lung) was 41.6 µM, the TGI (OVCAR-3 ovarian) was 18.7 µM and the TGI (SK-MEL-5 melanoma) was 24.2 µM. It also gave a TGI (RXF-631 renal) of 38.1 µM, a TGI (NCI/ADR-RES ovarian) of 16.1 µM and a TGI (SF-539 CNS) of 27.3 µM. The TGI (786-0 renal) was 6.79 µM.

`COC(=O)C1=C(C=O)C2C=CC1C2` (stereo not given) gave a TGI (XF 498 CNS) of 65.3 µM, a TGI (UACC-257 melanoma) of 71.3 µM and a TGI (PC-3 prostate) greater than 100 µM. The TGI (SR leukemia) was greater than 100 µM, the TGI (HL-60(TB) leukemia) was 50.6 µM and the TGI (HS 578T breast) was greater than 100 µM. It also gave a TGI (ACHN renal) greater than 81.2 µM, a TGI (A549 NSCLC) greater than 100 µM and a TGI (TK-10 renal) greater than 76 µM. For the same compound, the TGI (RPMI-8226 leukemia) was greater than 89200 nM, the TGI (EKVX NSCLC) was greater than 100 µM and the TGI (OVCAR-8 ovarian) was greater than 94 µM. It also gave a TGI (M19-MEL melanoma) greater than 70.3 µM, a TGI (MDA-MB-435) greater than 100 µM and a TGI (DMS 273 small cell lung) greater than 65.1 µM. For the same compound, the TGI (LOX IMVI melanoma) was greater than 72.3 µM, the TGI (MALME-3M melanoma) was greater than 100 µM and the TGI (OVCAR-4 ovarian) was greater than 100 µM. It also gave a TGI (SF-295 CNS) greater than 100 µM, a TGI (HOP-92 NSCLC) greater than 100 µM and a TGI (CAKI-1 renal) greater than 56.2 µM. For the same compound, the TGI (KM12 colon) was greater than 100 µM, the TGI (U251 CNS) was greater than 100 µM and the TGI (SNB-75 CNS) was greater than 100 µM. The TGI (OVCAR-5 ovarian) was greater than 100 µM, the TGI (NCI-H522 lung) was 61.4 µM and the TGI (SNB-19 CNS) was greater than 100 µM. For the same compound, the TGI (BT-549 breast) was greater than 100 µM, the TGI (DMS 114 small cell lung) was greater than 84.6 µM and the TGI (MCF7 breast) was greater than 100 µM. The TGI (M14 melanoma) was 67.1 µM, the TGI (COLO 205 colon) was 66.3 µM and the TGI (DU-145 prostate) was greater than 100 µM. For the same compound, the TGI (SK-OV-3 ovarian) was greater than 100 µM, the TGI (SNB-78 CNS) was greater than 100 µM and the TGI (KM20L2 colon) was greater than 100 µM. The TGI (HCC-2998 colon) was greater than 100 µM, the TGI (A498 renal) was greater than 100 µM and the TGI (K-562 leukemia) was 74.5 µM. For the same compound, the TGI (HT29 colon) was greater than 79.2 µM, the TGI (SN12C renal) was greater than 90.1 µM and the TGI (UO-31 renal) was greater than 100 µM. For the same compound, the TGI (HCT-15 colon) was 62.2 µM, the TGI (NCI-H23 lung) was greater than 100 µM and the TGI (UACC-62 melanoma) was greater than 100 µM. It also gave a TGI (RXF 393 renal) greater than 100 µM, a TGI (MOLT-4 leukemia) of 71.2 µM and a TGI (HCT-116 colon) greater than 76.3 µM. It also gave a TGI (SK-MEL-2 melanoma) greater than 100 µM, a TGI (DLD-1 colon) of 78.5 µM and a TGI (IGROV1 ovarian) greater than 100 µM. For the same compound, the TGI (HOP-18 NSCLC) was greater than 91.4 µM, the TGI (LXFL 529 NSCLC) was 39.7 µM and the TGI (NCI-H226 lung) was greater than 100 µM. It also gave a TGI (SK-MEL-28 melanoma) greater than 90.2 µM, a TGI (CCRF-CEM leukemia) of 55 µM and a TGI (HOP-62 NSCLC) greater than 100 µM. It also gave a TGI (SF-268 CNS) greater than 100 µM, a TGI (SW-620 colon) of 62.6 µM and a TGI (NCI-H460 lung) greater than 100 µM. It also gave a TGI (OVCAR-3 ovarian) of 95.5 µM, a TGI (SK-MEL-5 melanoma) greater than 100 µM and a TGI (RXF-631 renal) greater than 100 µM. It also gave a TGI (NCI/ADR-RES ovarian) greater than 100 µM, a TGI (T-47D breast) greater than 100 µM and a TGI (MDA-N) greater than 100 µM. It also gave a TGI (SF-539 CNS) greater than 100 µM, a TGI (MDA-MB-231 breast) greater than 100 µM and a TGI (786-0 renal) greater than 100 µM.

Source: PubChem BioAssay (NCI)
